Type in all cases: in vivo
Experiment [1] relates to Plutella xylostella. Put plainly: Example B8: Plutella xylostella (diamond back moth), artificial diet 24-well, eggs. The conditions noted are these: 192 h, application rate of 200 ppm, 8 days after infestation, read-out: effect in at least one of the two categories (mortality or growth inhibition). The method, then:
Example B8: Plutella xylostella (Diamond Back Moth)
24-well microtiter plates with artificial diet were treated with aqueous test solutions prepared from 10,000 ppm DMSO stock solutions by pipetting. After drying, Plutella eggs were pipetted through a plastic stencil onto a gel blotting paper and the plate was closed with it. The samples were assessed for mortality and growth inhibition in comparison to untreated samples 8 days after infestation.
The following compounds gave an effect of at least 80% in at least one of the two categories (mortality or growth inhibition) at an application rate of 200 ppm: […]

The subject of experiment [2] is Chilo suppressalis. Put plainly: Example B1: Chilo suppressalis (striped rice stemborer), artificial diet, L2 larvae. The conditions noted are these: 144 h, application rate of 200 ppm, 6 days after infestation, read-out: control in at least one of the three categories (mortality, anti-feedant effect, or growth inhibition). The method, then:
Example B1: Chilo suppressalis (Striped Rice Stemborer)
24-well microtiter plates with artificial diet were treated with aqueous test solutions prepared from 10,000 ppm DMSO stock solutions by pipetting. After drying, the plates were infested with L2 larvae (6-8 per well). The samples were assessed for mortality, anti-feeding effect, and growth inhibition in comparison to untreated samples 6 days after infestation. Control of Chilo suppressalis by a test sample is given when at least one of the categories mortality, anti-feedant effect, and growth inhibition is higher than the untreated sample.

Experiment [3] deals with Spodoptera littoralis. As to the kind of experiment: Example B9: Spodoptera littoralis (Egyptian cotton leaf worm), cotton leaf discs, L1 larvae. The settings on record: foliar, 72 h, application rate of 200 ppm, 3 days after infestation, read-out: control in at least one of the three categories (mortality, anti-feedant effect, or growth inhibition). The method, then: Example B9: Spodoptera littoralis (Egyptian Cotton Leaf Worm)
Cotton leaf discs were placed onto agar in 24-well microtiter plates and sprayed with aqueous test solutions prepared from 10,000 ppm DMSO stock solutions. After drying the leaf discs were infested with five L1 larvae. The samples were assessed for mortality, anti-feeding effect, and growth inhibition in comparison to untreated samples 3 days after infestation. Control of Spodoptera littoralis by a test sample is given when at least one of the categories mortality, anti-feedant effect, and growth inhibition is higher than the untreated sample.

`C[C@H](NC(=O)Nc1ccc(Br)cc1OC(F)F)c1nccnc1-c1ccc(C#N)cn1` [Example P247, 1-[4-bromo-2-(difluoromethoxy)phenyl]-3-[(1S)-1-[3-(5-cyano-2-pyridyl)pyrazin-2-yl]ethyl]urea]: in experiment [1], the percent effect (mortality or growth inhibition) at 200 ppm was at least 80%. Moreover, the percent control (mortality, anti-feedant effect or growth inhibition) at 200 ppm in experiment [2] and in experiment [3] was at least 80% throughout.

With `C[C@H](NC(=O)Nc1cc(Oc2ccc(C(F)(F)F)cn2)c(Cl)cc1Cl)c1ncnn1-c1ncccn1` [Example P209, 1-[2,4-dichloro-5-[[5-(trifluoromethyl)-2-pyridyl]oxy]phenyl]-3-[(1S)-1-(2-pyrimidin-2-yl-1,2,4-triazol-3-yl)ethyl]urea], the percent effect (mortality or growth inhibition) at 200 ppm in experiment [1] was at least 80%. For the same molecule, in experiment [3], the percent control (mortality, anti-feedant effect or growth inhibition) at 200 ppm is at least 80%.

Take `C[C@H](NC(=O)Nc1cnc(Br)cc1Br)c1nccnc1-c1ccc(C#N)cn1` [Example P248, 1-[(1S)-1-[3-(5-cyano-2-pyridyl)pyrazin-2-yl]ethyl]-3-(4,6-dibromo-3-pyridyl)urea]: the percent effect (mortality or growth inhibition) at 200 ppm in experiment [1] was at least 80%. The percent control (mortality, anti-feedant effect or growth inhibition) at 200 ppm in experiment [2] and in experiment [3] was at least 80% in each case.

Regarding `C[C@H](NC(=O)Nc1cc(Br)c(Cl)cc1F)c1ncnn1-c1ncccn1` [Example P300, 1-(5-bromo-4-chloro-2-fluoro-phenyl)-3-[(1S)-1-(2-pyrimidin-2-yl-1,2,4-triazol-3-yl)ethyl]urea], in experiment [1], the percent effect (mortality or growth inhibition) at 200 ppm is at least 80%. The percent control (mortality, anti-feedant effect or growth inhibition) at 200 ppm in experiment [2] and in experiment [3] was at least 80% each time.

Take `Cc1cc(Cl)c(Cl)cc1NC(=O)N[C@@H](C)c1ncnn1-c1ncccn1` [Example P191, 1-(4,5-dichloro-2-methyl-phenyl)-3-[(1S)-1-(2-pyrimidin-2-yl-1,2,4-triazol-3-yl)ethyl]urea]: the percent effect (mortality or growth inhibition) at 200 ppm in experiment [1] was at least 80%. For the same molecule, the percent control (mortality, anti-feedant effect or growth inhibition) at 200 ppm in experiment [3] was at least 80%.

On to `C[C@H](NC(=O)Nc1cc(Cl)c(Oc2ncc(C(F)(F)F)cc2Cl)c(Cl)c1)c1ncnn1-c1ncccn1` [Example P26, 1-[3,5-dichloro-4-[[3-chloro-5-(trifluoromethyl)-2-pyridyl]oxy]phenyl]-3-[(1S)-1-(2-pyrimidin-2-yl-1,2,4-triazol-3-yl)ethyl]urea], for which the percent effect (mortality or growth inhibition) at 200 ppm in experiment [1] was at least 80%. Besides, in experiment [3], the percent control (mortality, anti-feedant effect or growth inhibition) at 200 ppm is at least 80%.

For the molecule `C[C@H](NC(=O)Nc1ccc(Br)cc1OC(F)F)c1ncnn1-c1ccc(C#N)cn1` [Example P254, 1-[4-bromo-2-(difluoromethoxy)phenyl]-3-[(1S)-1-[2-(5-cyano-2-pyridyl)-1,2,4-triazol-3-yl]ethyl]urea], in experiment [1], the percent effect (mortality or growth inhibition) at 200 ppm is at least 80%. Moreover, the percent control (mortality, anti-feedant effect or growth inhibition) at 200 ppm in experiment [3] was at least 80%.

In the case of `C[C@H](NC(=O)Nc1cc2c(cc1Cl)OCO2)c1ncnn1-c1ncccn1` [Example P370, 1-(6-chloro-1,3-benzodioxol-5-yl)-3-[(1S)-1-(2-pyrimidin-2-yl-1,2,4-triazol-3-yl)ethyl]urea], the percent control (mortality, anti-feedant effect or growth inhibition) at 200 ppm in experiment [2] and in experiment [3] was at least 80% in each case.

Take `C[C@H](NC(=O)Nc1ccc(Cl)c(Cl)c1Cl)c1ncnn1-c1ncccn1` [Example P95, 1-[(1S)-1-(2-pyrimidin-2-yl-1,2,4-triazol-3-yl)ethyl]-3-(2,3,4-trichlorophenyl)urea]: in experiment [3], the percent control (mortality, anti-feedant effect or growth inhibition) at 200 ppm was at least 80%.

Take `C[C@H](NC(=O)Nc1cc(Br)c(F)cc1F)c1ncnn1-c1ncccn1` [Example P343, 1-(5-bromo-2,4-difluoro-phenyl)-3-[(1S)-1-(2-pyrimidin-2-yl-1,2,4-triazol-3-yl)ethyl]urea]: the percent control (mortality, anti-feedant effect or growth inhibition) at 200 ppm in experiment [2] and in experiment [3] was at least 80% each time.

`COC(=O)c1cc2c(cc1NC(=O)N[C@@H](C)c1ncnn1-c1ncccn1)OC(F)(F)O2` [Example P369, methyl 2,2-difluoro-6-[[(1S)-1-(2-pyrimidin-2-yl-1,2,4-triazol-3-yl)ethyl]carbamoylamino]-1,3-benzodioxole-5-carboxylate]: the percent effect (mortality or growth inhibition) at 200 ppm in experiment [1] was at least 80%. For the same molecule, the percent control (mortality, anti-feedant effect or growth inhibition) at 200 ppm in experiment [3] is at least 80%.

`CC(NC(=O)Nc1cnc(Br)cc1Br)c1nccnc1-n1nccn1` (centres unmarked) [Example P262, 1-(4,6-dibromo-3-pyridyl)-3-[1-[3-(triazol-2-yl)pyrazin-2-yl]ethyl]urea]: the percent control (mortality, anti-feedant effect or growth inhibition) at 200 ppm in experiment [3] was at least 80%.

Take `C[C@H](NC(=O)Nc1cc(Cl)c(OC(F)(F)C(F)Br)cc1Cl)c1ncnn1-c1ncccn1` (stereo partly drawn) [Example P197, 1-[4-(2-bromo-1,1,2-trifluoro-ethoxy)-2,5-dichloro-phenyl]-3-[(1S)-1-(2-pyrimidin-2-yl-1,2,4-triazol-3-yl)ethyl]urea]: the percent control (mortality, anti-feedant effect or growth inhibition) at 200 ppm in experiment [3] is at least 80%.

Regarding `COc1cc(OC)c(NC(=O)N[C@@H](C)c2ncnn2-c2ncccn2)cc1Cl` [Example P387, 1-(5-chloro-2,4-dimethoxy-phenyl)-3-[(1S)-1-(2-pyrimidin-2-yl-1,2,4-triazol-3-yl)ethyl]urea], the percent control (mortality, anti-feedant effect or growth inhibition) at 200 ppm in experiment [3] was at least 80%.

With `C[C@H](NC(=O)Nc1ccc(Cl)c(C(F)(F)F)c1)c1ncnn1-c1ncccn1` [Example P131, 1-[4-chloro-3-(trifluoromethyl)phenyl]-3-[(1S)-1-(2-pyrimidin-2-yl-1,2,4-triazol-3-yl)ethyl]urea], the percent control (mortality, anti-feedant effect or growth inhibition) at 200 ppm in experiment [2] and in experiment [3] was at least 80% in each case.

`C[C@H](NC(=O)Nc1cc(Br)c(C(F)(F)F)cc1F)c1ncnn1-c1ncccn1` [Example P350, 1-[5-bromo-2-fluoro-4-(trifluoromethyl)phenyl]-3-[(1S)-1-(2-pyrimidin-2-yl-1,2,4-triazol-3-yl)ethyl]urea]: the percent control (mortality, anti-feedant effect or growth inhibition) at 200 ppm in experiment [2] and in experiment [3] was at least 80% each time.

On to `C[C@H](NC(=S)Nc1ccc(Cl)c(C(F)(F)F)c1)c1ncnn1-c1ncccn1` [Example P15, 1-[4-chloro-3-(trifluoromethyl)phenyl]-3-[(1S)-1-(2-pyrimidin-2-yl-1,2,4-triazol-3-yl)ethyl]thiourea], for which the percent control (mortality, anti-feedant effect or growth inhibition) at 200 ppm in experiment [2] and in experiment [3] was at least 80% each time.

On to `C[C@H](NC(=O)Nc1cc(Cl)c(Br)cc1F)c1ncnn1-c1ncccn1` [Example P373, 1-(4-bromo-5-chloro-2-fluoro-phenyl)-3-[(1S)-1-(2-pyrimidin-2-yl-1,2,4-triazol-3-yl)ethyl]urea], for which the percent control (mortality, anti-feedant effect or growth inhibition) at 200 ppm in experiment [2] and in experiment [3] was at least 80% throughout.

In the case of `COc1cc(F)c(F)cc1NC(=O)N[C@@H](C)c1ncnn1-c1ncccn1` [Example P383, 1-(4,5-difluoro-2-methoxy-phenyl)-3-[(1S)-1-(2-pyrimidin-2-yl-1,2,4-triazol-3-yl)ethyl]urea], the percent control (mortality, anti-feedant effect or growth inhibition) at 200 ppm in experiment [2] and in experiment [3] was at least 80% throughout.

With `C[C@H](NC(=O)Nc1ccc(Cl)c(C(F)(F)F)c1)c1nccnc1-c1ncccn1` [Example P11, 1-[4-chloro-3-(trifluoromethyl)phenyl]-3-[(1S)-1-(3-pyrimidin-2-ylpyrazin-2-yl)ethyl]urea], the percent effect (mortality or growth inhibition) at 200 ppm in experiment [1] was at least 80%. The percent control (mortality, anti-feedant effect or growth inhibition) at 200 ppm in experiment [3] is at least 80%.

Consider `CC(NC(=S)Nc1cc(C(F)(F)F)cc(C(F)(F)F)c1)c1ncnn1-c1ncccn1` (centres unmarked) [Example P3, 1-[3,5-bis(trifluoromethyl)phenyl]-3-[1-(2-pyrimidin-2-yl-1,2,4-triazol-3-yl)ethyl]thiourea], for which, in experiment [3], the percent control (mortality, anti-feedant effect or growth inhibition) at 200 ppm is at least 80%.

As to `CC(NC(=O)Nc1cnc(Br)cc1Br)c1nccnc1-c1ncccn1` (centres unmarked) [Example P242, 1-(4,6-dibromo-3-pyridyl)-3-[1-(3-pyrimidin-2-ylpyrazin-2-yl)ethyl]urea], the percent control (mortality, anti-feedant effect or growth inhibition) at 200 ppm in experiment [2] and in experiment [3] was at least 80% each time.

As to `C#CCOc1cc(NC(=O)N[C@@H](C)c2ncnn2-c2ncccn2)c(F)cc1Br` [Example P203, 1-(4-bromo-2-fluoro-5-prop-2-ynoxy-phenyl)-3-[(1S)-1-(2-pyrimidin-2-yl-1,2,4-triazol-3-yl)ethyl]urea], the percent effect (mortality or growth inhibition) at 200 ppm in experiment [1] was at least 80%. Also, the percent control (mortality, anti-feedant effect or growth inhibition) at 200 ppm in experiment [3] was at least 80%.

(Values after patent publication US20240108006A1, “PESTICIDALLY ACTIVE HETEROAROMATIC COMPOUNDS” (SYNGENTA CROP PROTECTION AG, priority 2021, published 2024).)
